Experimental findings from patent publication US3944549A, “Amino derivatives of 1,4-benzodioxan” (priority 1972, dated 1976) are described below.

“Also recorded” adds a separate entry of the source. Counter-ions that a name gives are not always drawn.

The nature of data set [1]: Acute toxicity, intravenous, in mice. The settings on record: mouse, in vivo; for LD50: read-out: LD-50 I.V. in mice; for NOAEL: read-out: Maximum non-toxic dose.
The subject of a further data set is femoral artery. In words: Vasodilating properties: injection into the femoral artery in dogs. Format: in vivo. The settings on record: for increase in flow rate of the femoral artery: injection into femoral artery. Here is the method: On injection into the femoral artery, no effect is observed at doses of less than 100 μg/kg. […] At these doses, no effect is observed on the arterial pressure AP measured in accordance with the usual conditions.
When administered intra-arterially, the product of Example 6 is injected directly into the femoral artery. The flow rate is increased by 200% from a dose of 10 μg.

The next data set relates to vertebral artery. In words: Vasodilating properties: injection into the vertebral artery in dogs. Format: in vivo. The settings on record: for decrease in arterial pressure: injection into vertebral artery. The procedure:
On injection into the vertebral artery, no effect is observed at doses of less than 1 mg/kg. At a dose of 10 mg/kg, the flow rate increases by 37% and at a dose of 20 mg/kg it only increases by 27%. At these two doses, the arterial pressure decreases respectively by 14 and 28% although no effect had been observed during the injection into the femoral artery.

In a further data set the test system is coronary flow rate. The data set is described as follows: Coronary flow rate and cardiac parameters in anaesthetised dogs, intravenous perfusion. Format: in vivo.
A further data set has as its system adrenergic receptors. The data set is described as follows: α-blocking action: reversal of the hypertensive effect of adrenalin. Format: in vivo, dogs. The settings on record: for α-blocking / α-lytic action: conclusion or summary; for hypertensive effects of adrenalin: orally; for dose from which the product is α-blocking (adrenolytic): intravenously.
The test system of another data set is man. In words: Clinical studies in man. Format: in vivo. An excerpt:
In clinical studies, good results were obtained in man by administering tablets such as: […]

Data set [2] concerns acetylcholine, isoprenalin, peripheral vagus. The data set is described as follows: Effect on responses to acetylcholine, isoprenalin and stimulation of the peripheral vagus in dogs. The settings on record: dog, in vivo.
Data set [3] deals with vertebral, femoral and mesenteric artery flow rates. The data set is described as follows: Vasodilating and cardiovascular properties on intravenous administration in dogs. The settings on record: for increase in vertebral flow rate: 0.5 mg/kg i.v.
Description: (§1) During the series of pharmacological tests, the following parameters were used:
Arterial pressure (abbreviated to AP): this parameter, expressed in mm Hg) is evaluated in accordance with the usual conditions.
Arterial resistance: this parameter (expressed in dynes/sec./cm^-^5) is calculated according to the ratio [formula] Cardiac index: this parameter is expressed in (ml/min.)/kg. Systolic index: this parameter is equal to the ratio cardiac index/frequency.
(§2) Cardiac work: this parameter (expressed in kgm/min.) is calculated according to the relationship: Cardiac work = average AP (mm Hg) × 1.36 = cardiac output (1/min.) × 10^-^3.
(§3) Ratio dp/dt: this parameter corresponds to the variation in pressure expressed in mm Hg per second (in English: Rate of rise of left ventricular pressure).
(§4) The technique used to measure the ratio dp/dt is as follows:
(§5) The cardiac output is determined in Beagle dogs weighing 10 to 15 kg, anesthetised with pentobarbital, by injecting Carbiogreen (1 mg in 0.5 ml) into the right ventricle. A catheter introduced via the carotid artery into the aorta makes it possible to aspirate arterial blood at the rate of 25 ml/min. and to pass it in front of the photoelectric cell of a Beckman cardiodensitometer. The results are interpreted in accordance with the Hamilton method.
(§6) In the case of intravenous administration, the tests were carried out on 4 anaesthetised dogs. The product is perfused intravenously over the course of 5 minutes at doses of 2.5, 5 and 10 mg/kg and, in one test, is administered intraduodenally at a dose of 10 mg/kg.
The test system of a further data set is intestinal barrier. In words: Intraduodenal administration in dogs: cardiovascular effects and passage through the intestinal barrier. Format: in vivo. The settings on record: for passage through the intestinal barrier: intraduodenal, dogs.
The subject of data set [4] is femoral artery, vertebral artery. In words: Flow rates of femoral and vertebral arteries after oral administration in dogs. Format: in vivo.
Setting [5] is: third test, 0.5, 1, 2 and 4 mg/kg i.v. without stopping.
[6] abbreviates: 4 anaesthetised dogs, 2.5, 5 and 10 mg/kg i.v.
[7] abbreviates: anaesthetised dogs (Nembutal), 2.5 mg/kg i.v. over 5 minutes.

Description for coronary flow rate: as §1, §2, §3, §4, §5
Description for intestinal barrier: as §6

As to `OCCN1CCN(CC2COc3ccccc3O2)CC1` (centres unmarked) [Example 2, 1-[2-(1,4-Benzodioxanyl)-methyl]-4-(2-hydroxyethyl)-piperazine hemifumarate], in data set [1], the LD50 amounted to 97 ± 2 mg/kg and the NOAEL is 90 mg/kg. Moreover, in the data set on femoral artery (doses of less than 100 μg/kg), the “effect on injection into the femoral artery” value is “no effect”. The “increase in flow rate of the femoral artery” value with femoral artery (1 mg/kg) amounted to 34%. The “increase in flow rate of the femoral artery” value in the data set with femoral artery (10 mg/kg) came to 90%. The “increase in flow rate of the femoral artery” value in the data set on femoral artery (20 mg/kg) was 67%. Moreover, the “effect on the arterial pressure AP” value in the data set on femoral artery (injection into femoral artery, 1, 10, 20 mg/kg) is reported as “no effect”. In addition, the “effect on injection into the vertebral artery” value in the data set with vertebral artery (doses of less than 1 mg/kg) is on record as “no effect”. In addition, in the data set on vertebral artery (10 mg/kg), the “decrease in arterial pressure” value was found to be 14%. For the same molecule, the “decrease in arterial pressure” value in the data set on vertebral artery (20 mg/kg) was found to be 28%. In the data set with coronary flow rate (5 mg/kg i.v.), the cardiac work result was “an increase in the cardiac work”, the “duration of increase in maximum intraventricular pressure” value is 1 h, the “duration of increase in ratio dp/dt” value is on record as “more than 1 hour” and the “duration of increase in the differential arterial pressure” value turned out to be 1 h. In addition, in the data set with coronary flow rate (5 mg/kg i.v.), the duration of tachycardia result is listed as “more than 2 hours” and the “time of maximum effect on coronary flow rate” value came out at 1 h. For the same molecule, the duration of hypotension entry in the data set on coronary flow rate (5 mg/kg i.v., can last) is “more than 2 hours”. For the same molecule, in the data set with coronary flow rate (summary), the cardiac work result is on record as “increases the cardiac work” and the coronary irrigation entry is “increases the coronary irrigation”. Besides, the “α-blocking / α-lytic action” value with adrenergic receptors was “acts as an α-lytic product”. Further, the “hypertensive effect of adrenalin” value with adrenergic receptors (dogs) is on record as “reverses the hypertensive effect of adrenalin in a lasting manner”. In addition, in the data set with adrenergic receptors (dogs, 5 mg/kg), the “hypertensive effects of adrenalin” value is listed as “decreases the said effects”. In the data set with adrenergic receptors (dogs, 7 mg/kg), the “hypertensive effects of adrenalin” value is reported as “inhibits them strongly”. Also, the “hypertensive effects of adrenalin” value with adrenergic receptors (dogs, 10 mg/kg) was “overcomes the α + effect of adrenalin”. The “results in clinical studies in man” value in the data set on man (tablets 50 mg or injectable ampoules 10 mg) is reported as “good results”. Besides, in [2], the “effect of the stimulation of the peripheral vagus” value is “does not alter”, the “effects of the injection of acetylcholine” value was “does not alter” and the “effects of the injection of isoprenalin” value is reported as “does not alter”. Moreover, in data set [3] (another test, 2 mg/kg i.v.), the “duration of increase in flow rate of the vertebral artery” value is “more than 1 hour” and the “flow rate of the femoral artery” value was “only increased greatly during the injection”. For the same molecule, the pulse rate result in data set [3] (first and second tests, i.v.) was “the pulse rate is increased and this effect persists during successive injections”. For the same molecule, the “effect of additional injections on the flow rate” value in [3] (first test, additional 0.5 and 5 mg/kg i.v.) was “no effect on the flow rate”. Further, the “increase in vertebral flow rate” value in data set [3] (second test, beginning of perfusion) was 135%. In data set [3] (second test, end of perfusion), the “increase in vertebral flow rate” value was found to be 58%. The “effect of subsequent injections on the flow rate” value in data set [3] (second test, subsequent 1 and 2 mg/kg i.v.) is “no effect on the flow rate”. In [3] (summary), the dilation of arteries entry is given as “can dilate either the vertebral artery or the femoral artery or both”. Besides, in data set [3] (summary, higher dose), the hypotensive effect entry is recorded as “at a higher dose, it is hypotensive”. Besides, the tachycardiac properties result in [3] (summary, low doses) is “possesses tachycardiac properties at low doses”. In data set [3] (setting [5]), the femoral flow rate result was “is increased very much by the first injection, decreases during the subsequent injections” and the “flow rate of the vertebral artery” value is recorded as “increases at each of the injections up to the third”. Besides, the “decrease in flow rate of the mesenteric artery” value in data set [3] (third test, 0.5, 1, 2 and 4 mg/kg i.v., at each injection) was 25%.

Turning to `OCC(O)CN1CCN(CC2COc3ccccc3O2)CC1` (centres unmarked) [Example 3, 1-[2-(1,4-Benzodioxanyl)-methyl]-4-(2,3-dihydroxypropyl)-piperazine dihydrochloride], in data set [1], the LD50 was 260 ± 11 mg/kg and the NOAEL is more than 170 mg/kg. Further, the “hypertensive effect of adrenalin” value in the data set with adrenergic receptors (10 mg/kg intraduodenally) is given as “reversal of the hypertensive effect of adrenalin”. Further, in the data set on adrenergic receptors, the “α-blocking / α-lytic action” value was “α-blocking agent”. Further, the “cardiovascular variations after intraduodenal administration” value in the data set with intestinal barrier (10 and 50 mg/kg intraduodenally) was “the variations described after intravenous injection are found again”. For the same molecule, the “passage through the intestinal barrier” value with intestinal barrier (dihydrochloride) is “passes easily through the intestinal barrier”. For the same molecule, the “results in man in vascular complaints” value in the data set on man (tablets containing 20 mg, 2 to 3 per day) is reported as “good results in vascular complaints”. For the same molecule, in data set [3] (i.v., 1 mg to 13 mg/kg), the AP entry is given as “little effect on the AP or a slight hypotension”, the cardiac output entry is on record as “scarcely changed”, the “differential AP” value is recorded as “An increase in the differential AP” and the dp/dt entry is listed as “an increase in dp/dt”. Moreover, in data set [3] (i.v., 1 mg to 13 mg/kg), the “effect on the vertebral flow rate” value is “no effect on the vertebral flow rate”, the ejection time entry is on record as “shortening of the ejection time” and the “rise in the pulse rate” value is listed as not above 25%.

As for `CCC(=O)OCCN1CCN(CC2COc3ccccc3O2)CC1` (centres unmarked) [Example 6, 1-[2-(1,4-Benzodioxanyl)-methyl]-4-[2-(propionyloxy)-ethyl]-piperazine dihydrochloride], in data set [1], the LD50 worked out at 109 ± 9 mg/kg. Moreover, in the data set on femoral artery (conclusion), the “mechanism of the vasodilating effect” value was “exclusively an alphalytic mechanism”. Moreover, in the data set with femoral artery (femoral intra-arterial, up to and including 10 mg, dihydrochloride), the “vasodilating effect at higher doses” value was “do not produce a greater vasodilation; also recorded: maximal from the very start and cannot be increased by higher doses”. In addition, the “dose from which flow rate is increased by 200%” value with femoral artery (injected directly into the femoral artery) came out at 10 µg. The “α-blocking / α-lytic action” value with adrenergic receptors was “α-blocking product”. In the data set with adrenergic receptors (dogs), the “dose from which the product is α-blocking (adrenolytic)” value is reported as 5 mg/kg. In addition, in the data set with intestinal barrier (10 mg/kg intraduodenally), the “activity on intraduodenal administration” value is listed as “the activity is found again”. In addition, the “passage through the intestinal barrier” value in the data set on intestinal barrier is listed as “passes through the intestinal barrier”. In addition, in data set [3] (setting [6]), the femoral flow rate entry is listed as “increased in the tests wherein an increase in the pulse rate is observed”, the intraventricular pressure entry was “decreased”, the pulse rate entry is “either is not altered (2 tests) or is increased” and the ratio dp/dt entry is listed as “decreased”. Also, the hypotensive effect entry in data set [3] (4 anaesthetised dogs, 2.5, 5 and 10 mg/kg i.v. over 5 minutes) is on record as “A hypotensive effect proportional to the dose”. In addition, in [3] (4 anaesthetised dogs, i.v.), the “time in which the femoral flow rate effect disappears” value stood at 15 min and the vertebral flow rate result is on record as “only increases in one of the two tests wherein the pulse rate was increased”. Also, the “effect on femoral flow rate, duration and reproducibility” value in [3] (conclusion) is “of short duration and is not reproducible”.

Take `CC(=O)OCCN1CCN(CC2COc3ccccc3O2)CC1` (centres unmarked) [Example 7, 1-[2-(1,4-Benzodioxanyl)-methyl]-4-[2-(acetyloxy)-ethyl]-piperazine dihydrochloride]: in [1], the LD50 stood at 86 ± 1 mg/kg and the NOAEL was determined as 80 mg/kg. Further, the “α-blocking / α-lytic action” value in the data set with adrenergic receptors is “α-lytic”. For the same molecule, in the data set on adrenergic receptors (from 2.5 mg/kg i.v., dogs), the “reversal of the hypertension due to adrenalin” value is reported as “reversal of the hypertension due to adrenalin”. Further, the “dose from which the product is α-blocking (adrenolytic)” value in the data set on adrenergic receptors (dogs) stood at 2.5 mg/kg. For the same molecule, in data set [3] (from 2.5 mg/kg i.v., both dogs), the hypotension entry was “a hypotension”, the left ventricular pressure result is listed as “a decrease in the left ventricular pressure”, the pulse rate result is on record as “does not vary markedly” and the ratio dp/dt entry is on record as “decrease”. The systolic ejection time result in [3] (from 2.5 mg/kg i.v., both dogs) was “decrease”.

For the molecule `c1cnc(N2CCN(CC3COc4ccccc4O3)CC2)nc1` (centres unmarked) [Example 8, 1-[2-(1,4-Benzodioxanyl)-methyl]-4-(2-pyrimidinyl)-piperazine dihydrochloride], the LD50 in data set [1] is 145 ± 10 mg/kg. The “α-blocking / α-lytic action” value with adrenergic receptors was “α-blocking action”. For the same molecule, the “hypertensive effect of adrenalin” value in the data set on adrenergic receptors (dogs anaesthetised by Nembutal) is reported as “the hypertensive effect of adrenalin is reversed”. Also, in [4] (10 mg/kg), the “passage into the general circulation” value is “the product passes into the general circulation”. In data set [4] (orally, 1 to 10 mg/kg), the “duration of rise in the flow rates” value was 30 min, the “rise in the femoral flow rate” value is 200% and the “rise in the vertebral flow rate” value came out at 60%. Moreover, in [4] (orally, less than 100 μg/kg), the “flow rate of the femoral artery” value is “does not alter” and the “flow rate of the vertebral artery” value is given as “does not alter”. Further, in data set [3] (setting [7]), the “decrease in the vertebral flow rate” value was 19%, the “effect on the mesenteric flow rate” value is listed as “practically no effect” and the “increase in the differential arterial pressure” value is given as 50%. Moreover, the tachycardia in data set [3] (anaesthetised dogs (Nembutal), 2.5 mg/kg i.v. over 5 minutes, increase (+)) turned out to be 19%. In addition, in data set [3] (anaesthetised dogs (Nembutal), 2.5 mg/kg i.v. over 5 minutes, slight, increase (+)), the femoral vasodilating effect worked out at 19%.
